Counter-ions that a name gives are not always drawn.
How the values were obtained:
human CCR5 [1] = target: T1, human CCR5 (Homo sapiens, UniProt P51681); experiment: Inhibition test on the binding of RANTES to CCR5 (RANTES-induced transient increase of Ca ion in CCR5/CHO cells); assay type: cell-based; details: inhibition of RANTES (10 nM)-induced Ca2+ transient increase; CCR5/CHO cell
T1 construct: expressed in transfected cells; host or cells: Ba/F3
Protocol: Inhibition test on the binding of RANTES to CCR5:
(1) Isolation of Human CCR5 Gene
Human placental cDNA was prepared using Marathon cDNA amplification kit (Clontech). PCR primers hCCR5Xbal-F1:
Using the human placental cDNA as the template and using Ex Taq (Takara), PCR reaction (2 minutes at 95° C.→(30 seconds at 95° C., 45 seconds at 60° C., 1 minute at 72° C.)×35 times) was carried out. The thus amplified PCR product was subjected to a 1% agarose gel electrophoresis, purified using QIAquick Gel Extraction Kit (QUIAGEN) and then digested with a restriction enzyme XbaI. The digested fragments were ligated to an expression vector pEF-BOS-bsr using DNA Ligation Kit Ver. 2 (Takara) and transformed into Escherichia coli DH5a. […]
The thus established human CCR5 stably over-expressing CHO cell (CCR5/CHO cell) was suspended in Ham's F-12 medium containing FBS (10%) and seeded at a density of […] into a 96 well plate. […] Transient increase in the intracellular Ca^2+ concentration induced by the human RANTES was measured using a Ca^2+ detector for 96 well use (Hamamatsu Photonics), and inhibition ratio (%) of the test compound was calculated by the following calculation formula. Inhibition ratio=(Ec−Ea)/Ec×100 • Ec: measured value of Ca^2+ transient increase by RANTES • Ea: measured value of Ca^2+ transient increase by RANTES when a test compound was added.

human CCR5 [2] = target: T1, human CCR5; experiment: Migration test of human CCR5 expressing cell (hCCR5-Ba/F3 cell) against RANTES; assay type: cell-based
Protocol: Migration test of human CCR5 expressing cell (hCCR5-Ba/F3 cell):
The isolation was carried out according to the method of the isolation of human CCR5 gene as described in the above Example 1.
Ba/F3 cells were statically cultured by using RMMI-1640 medium (Gibco BRL) containing antibiotics (Antibiotic-Antimycotic) (final concentration: penicillin G sodium (100 U/mL), streptomycin sulfate (100 μg/mL), amphotericin B (0.25 μg/mL)) (Gibco BRL), fetal bovine serum (FBS) (10%), 2-mercaptoethanol (55 μM) and mouse interleukin-3 (IL-3) (5 ng/mL) (Pepro Tech, Inc) in a carbon dioxide incubator (temperature: 37° C., CO2 concentration: 5%, humidity: 95%). […]
The human CCR5 expression level in the clone obtained by the method described in the above (1-C) was detected with FAC Sort (trade name, Becton, Dickinson) by detecting the cells with a fluorescence isothiocyanate (FITC)-labeled anti-human CCR5 antibody (BD Pharmingen) and analyzed. […]
Influence of a test compound on the migration ability of the human CCR5 expressing Ba/F3 cell against RANTES, MIP-1α or […] was examined. […] The cells on the microplate were suspended in 100 μl of a phosphate buffer (PBS), and 1/10 portion thereof was further diluted with 90 μl of PBS, moved on a white plate for fluorescence assay, and used as an assay sample for migrated cell numbers (final: 100 μl/well). […]

T1 sequence (P51681 whole entry): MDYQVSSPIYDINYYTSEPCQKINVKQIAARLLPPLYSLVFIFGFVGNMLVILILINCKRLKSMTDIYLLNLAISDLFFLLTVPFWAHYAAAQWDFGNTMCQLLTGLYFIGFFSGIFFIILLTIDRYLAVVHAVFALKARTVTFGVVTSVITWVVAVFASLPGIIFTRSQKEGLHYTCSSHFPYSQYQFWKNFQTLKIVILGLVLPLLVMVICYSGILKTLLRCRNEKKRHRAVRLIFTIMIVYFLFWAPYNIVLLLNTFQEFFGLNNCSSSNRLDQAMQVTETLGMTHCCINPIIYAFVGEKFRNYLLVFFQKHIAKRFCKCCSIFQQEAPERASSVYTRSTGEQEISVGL

IC50 (human CCR5 [1]) [nM]	cell migration inhibition ratio (human CCR5 [2]; concentration 10 μM) [%]	cell migration inhibition ratio (human CCR5 [2]; concentration 30 μM) [%]	SMILES
77			CCCCN(C(=O)C1CCCCC1)C1CCN(Cc2ccc(Oc3ccc(NS(C)(=O)=O)cc3)cc2)CC1 [Example 5(2), N-butyl-N-[1-(4-{4-[(methylsulfonyl)amino]phenoxy}benzyl)piperidin-4-yl]cyclohexanecarboxamide hydrochloride]
	42	77	CCCCN(C(=O)Nc1ccc(F)cc1F)C1CCN(Cc2ccc(Oc3ccc(NS(C)(=O)=O)cc3)cc2)CC1.Cl [Example 23(126), N-[4-(4-{[4-(butyl{[(2,4-difluorophenyl)amino]carbonyl}amino)-1-piperidinyl]methyl}phenoxy)phenyl]methanesulfonamide hydrochloride]
